Tests used:
[1] = tested on: A3-KAW (B-Cell Non-Hodgkin's Lymphoma); test: Bliss excess, mean over the matrix (fraction); higher = more synergy
Method in brief: (§1)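 Cell lines in DMEM/F12 or RPMI with 10% FBS were plated in 1536-well plates, held 24 hours at 37°C, 5% CO2, then given two-drug dose matrices for 72 hours (DMSO typically 0.2%). Viability was read by CellTiter-Glo 2.0 luminescence and scaled as inhibition from 0 (vehicle wells) to 1 (blank wells). Combination Emax is the second-highest inhibition in the matrix; Bliss excess is observed combination effect minus expected EA + EB − EA·EB, EA and EB being single-agent effects.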

[2] = tested on: BT-483 (Breast Carcinoma); test: as above
Method in brief: as §1

FU97 (Gastric Carcinoma) = test: as above
Method in brief: as §1

[3] = tested on: JSC-1 (B-Cell Non-Hodgkin's Lymphoma); test: as above
Method in brief: as §1

[4] = tested on: KARPAS-422 (B-Cell Non-Hodgkin's Lymphoma); test: as above
Method in brief: as §1

NCI-H2591 (Mesothelioma) = test: as above
Method in brief: as §1

U-2-OS (Osteosarcoma) = test: as above
Method in brief: as §1

[5] = tested on: BT-483 (Breast Carcinoma); test: combination Emax (second highest fraction inhibited in the dose matrix, 72 h); higher = more inhibition; extreme values may be limits of the assay
Method in brief: as §1
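Wherever Bliss excess, mean over the matrix is given: after 72 h of two-drug dosing.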

Compound | Bliss excess [1] | Bliss excess [2] | Bliss excess (FU97 (Gastric Carcinoma)) | Bliss excess [3] | Bliss excess [4] | Bliss excess (NCI-H2591 (Mesothelioma)) | Bliss excess (U-2-OS (Osteosarcoma)) | combination Emax [5]
C=CCn1c(=O)c2cnc(Nc3ccc(N4CCN(C)CC4)cc3)nc2n1-c1cccc(C(C)(C)O)n1 [AZD1775] + C1CN(CCC1(C(=O)N[C@@H](CCO)C2=CC=C(C=C2)Cl)N)C3=NC=NC4=C3C=CN4 [Capivasertib] (first compound max 3 µM, partner max 3 µM) | 0.0032 | -0.0416 | 0.0946 | -0.0146 | -0.0691 | -0.035 | -0.0453 | 0.391
Cc1cc2ncnn2cc1Nc1ncc2c(n1)n(C1CCOCC1)c(=O)n2C [AZD7648] + CN(C)CCCOc1ccc(-c2ccc3ncc4c(c3c2)n(C2CCOCC2)c(=O)n4C)cn1 [AZD0156] (first compound max 10 µM, 7x7, partner max 1 µM) | 0.162 |  | -0.0915 | 0.0412 | -0.138 | -0.0089 | 0.0103 | 
NC1(C(=O)N[C@@H](CCO)c2ccc(Cl)cc2)CCN(c2ncnc3[nH]ccc23)CC1 [Capivasertib] + CCN(CCO)CCCOc1ccc2c(Nc3cc(CC(=O)Nc4cccc(F)c4)[nH]n3)ncnc2c1 [AZD2811] (first compound max 10 µM, 7x7, partner max 1 µM) | -0.0369 |  | -0.004 | 0.0082 | -0.0291 | -0.0025 | -0.001 | 
Cn1cnc2c(F)c(Nc3ccc(Br)cc3Cl)c(C(=O)NOCCO)cc21 [Selumetinib] + CC(C)n1c(=O)n(C)c2cnc3cc(F)c(-c4ccc(OCCCN5CCCCC5)nc4)cc3c21 [AZD1390] (first compound max 10 µM, 7x7, partner max 0.3 µM) | 0.0678 |  | -0.0344 | -0.0477 | -0.032 | -0.0585 | -0.0464 | 
Cc1c2c(nn1C)CSCc1cc(n(C)n1)CSc1cc(c3ccccc3c1)OCCCc1c(C(=O)O)n(C)c3c-2c(Cl)ccc13 [AZD5991] + C1CN(CCC1(C(=O)N[C@@H](CCO)C2=CC=C(C=C2)Cl)N)C3=NC=NC4=C3C=CN4 [Capivasertib] (first compound max 1 µM, 7x7, partner max 3 µM) | 0.0236 |  | -0.0174 | -0.0085 | -0.132 | -0.0306 | 0.0114 | 
CC(=O)c1c(C)c2cnc(Nc3ccc(N4CCNCC4)cn3)nc2n(C2CCCC2)c1=O [Palbociclib] + Cc1c2c(nn1C)CSCc1cc(n(C)n1)CSc1cc(c3ccccc3c1)OCCCc1c(C(=O)O)n(C)c3c-2c(Cl)ccc13 [AZD5991] (first compound max 10 µM, 7x7, partner max 1 µM) | -0.0158 |  | 0.0142 | -0.0567 | -0.0221 | -0.0328 | -0.0224 | 
CCN(CCO)CCCOc1ccc2c(Nc3cc(CC(=O)Nc4cccc(F)c4)[nH]n3)ncnc2c1 [AZD2811] + C[C@@H]1COCCN1C2=NC(=NC(=C2)C3(CC3)[S@](=N)(=O)C)C4=C5C=CNC5=NC=C4 [AZD6738] (first compound max 1 µM, 7x7, partner max 10 µM) | -0.0417 |  | -0.0795 | -0.0495 | -0.0581 | -0.0338 | -0.0297 | 
COc1nnc2ccc(N3CCC(c4ccc(OCCN5CCN(C)C(=O)[C@H]5C)cc4)CC3)nn12 [AZD5153] + Cn1cnc2c(F)c(Nc3ccc(Br)cc3Cl)c(C(=O)NOCCO)cc21 [Selumetinib] (first compound max 1 µM, 7x7, partner max 10 µM) | 0.0182 |  | -0.0254 | -0.0165 | -0.0311 | -0.0065 | -0.0291 | 
CC1(C)CCC(CN2CCN(c3ccc(C(=O)NS(=O)(=O)c4ccc(NCC5CCOCC5)c([N+](=O)[O-])c4)c(Oc4cnc5[nH]ccc5c4)c3)CC2)=C(c2ccc(Cl)cc2)C1 [Venetoclax] + COc1cc(Nc2ncc3c(n2)-c2ccc(Cl)cc2C(c2c(F)cccc2OC)=NC3)ccc1C(=O)O [Alisertib] (first compound max 1 µM, 7x7, partner max 10 µM) | -0.156 |  | -0.0524 | 0.0504 | 0.137 | -0.066 | 0.0055 | 
CCN(CCO)CCCOc1ccc2c(Nc3cc(CC(=O)Nc4cccc(F)c4)[nH]n3)ncnc2c1 [AZD2811] + O=C(c1cc(Cc2n[nH]c(=O)c3ccccc23)ccc1F)N1CCN(C(=O)C2CC2)CC1 [Olaparib] (first compound max 1 µM, 7x7, partner max 10 µM) | 0.0053 |  | -0.0269 | 0.0145 | 0.0267 | -0.0332 | 0.0112 | 
CC1(C)CCC(CN2CCN(c3ccc(C(=O)NS(=O)(=O)c4ccc(NCC5CCOCC5)c([N+](=O)[O-])c4)c(Oc4cnc5[nH]ccc5c4)c3)CC2)=C(c2ccc(Cl)cc2)C1 [Venetoclax] + C[C@@H]1COCCN1C2=NC(=NC(=C2)C3(CC3)[S@](=N)(=O)C)C4=C5C=CNC5=NC=C4 [AZD6738] (first compound max 1 µM, 7x7, partner max 10 µM) | 0.008 |  | -0.0455 | -0.0148 | -0.0055 | -0.0595 | -0.0469 | 
CN(C)CCCOc1ccc(-c2ccc3ncc4c(c3c2)n(C2CCOCC2)c(=O)n4C)cn1 [AZD0156] + O=C(c1cc(Cc2n[nH]c(=O)c3ccccc23)ccc1F)N1CCN(C(=O)C2CC2)CC1 [Olaparib] (first compound max 3 µM, partner max 3 µM) | 0.276 | -0.0118 | -0.0154 | 0.171 | 0.0171 | -0.0248 | 0.0203 | 0.313
COc1cccc2c1C(=O)c1c(O)c3c(c(O)c1C2=O)C[C@@](O)(C(=O)CO)C[C@@H]3O[C@H]1C[C@H](N)[C@H](O)[C@H](C)O1 [Doxorubicin] + Cc1cc2ncnn2cc1Nc1ncc2c(n1)n(C1CCOCC1)c(=O)n2C [AZD7648] (first compound max 1 µM, 7x7, partner max 10 µM) | 0.0751 |  | -0.0094 | 0.063 | 0.0699 | 0.0556 | 0.0234 | 
C[C@@H]1COCCN1c1cc(C2([S@](C)(=N)=O)CC2)nc(-c2ccnc3[nH]ccc23)n1 [AZD6738] + O=C(c1cc(Cc2n[nH]c(=O)c3ccccc23)ccc1F)N1CCN(C(=O)C2CC2)CC1 [Olaparib] (first compound max 10 µM, 7x7, partner max 10 µM) | -0.0085 |  | 0.023 | -0.0254 | -0.0539 | 0.0123 | 0.0257 | 
CN(CCO)CC[C@H](CSc1ccccc1)Nc1ccc(S(=O)(=O)NC(=O)c2ccc(N3CCC([C@@H](O)c4ccccc4-c4ccc(Cl)cc4)CC3)cc2)cc1S(=O)(=O)C(F)(F)F [AZD4320] + Cn1cnc2c(F)c(Nc3ccc(Br)cc3Cl)c(C(=O)NOCCO)cc21 [Selumetinib] (first compound max 1 µM, 7x7, partner max 3 µM) | 0.0747 |  | -0.011 | 0.0044 | -0.0387 | 0.0309 | 0.0351 | 
CN(CCO)CC[C@H](CSc1ccccc1)Nc1ccc(S(=O)(=O)NC(=O)c2ccc(N3CCC([C@@H](O)c4ccccc4-c4ccc(Cl)cc4)CC3)cc2)cc1S(=O)(=O)C(F)(F)F [AZD4320] + C1CN(CCC1(C(=O)N[C@@H](CCO)C2=CC=C(C=C2)Cl)N)C3=NC=NC4=C3C=CN4 [Capivasertib] (first compound max 1 µM, 7x7, partner max 3 µM) | -0.0211 |  | 0.0069 | -0.0187 | 0.0401 | -0.0455 | -0.0609 | 
COc1nnc2ccc(N3CCC(c4ccc(OCCN5CCN(C)C(=O)[C@H]5C)cc4)CC3)nn12 [AZD5153] + CC1(C)CCC(CN2CCN(c3ccc(C(=O)NS(=O)(=O)c4ccc(NCC5CCOCC5)c([N+](=O)[O-])c4)c(Oc4cnc5[nH]ccc5c4)c3)CC2)=C(c2ccc(Cl)cc2)C1 [Venetoclax] (first compound max 1 µM, 7x7, partner max 1 µM) | -0.0095 |  | -0.0452 | -0.0724 | -0.032 | -0.0688 | -0.0424 | 
CCc1c2c(nc3ccc(O)cc13)-c1cc3c(c(=O)n1C2)COC(=O)[C@]3(O)CC [SN-38] + CN(C)CCCOc1ccc(-c2ccc3ncc4c(c3c2)n(C2CCOCC2)c(=O)n4C)cn1 [AZD0156] (first compound max 0.3 µM, 7x7, partner max 1 µM) | 0.0988 |  | -0.0484 | -0.0046 | -0.0862 | -0.0118 | -0.0193 | 
Cn1cnc2c(F)c(Nc3ccc(Br)cc3Cl)c(C(=O)NOCCO)cc21 [Selumetinib] + C[C@@H]1COCCN1C2=NC(=NC(=C2)C3(CC3)[S@](=N)(=O)C)C4=C5C=CNC5=NC=C4 [AZD6738] (first compound max 10 µM, 7x7, partner max 10 µM) | 0.061 |  | 0.0267 | 0.0244 | -0.0396 | 0.0292 | -0.0443 | 
Cn1cnc2c(F)c(Nc3ccc(Br)cc3Cl)c(C(=O)NOCCO)cc21 [Selumetinib] + C=CCn1c(=O)c2cnc(Nc3ccc(N4CCN(C)CC4)cc3)nc2n1-c1cccc(C(C)(C)O)n1 [AZD1775] (first compound max 10 µM, partner max 1 µM) | -0.0575 |  | 0.0052 | -0.0432 | -0.0508 | -0.0318 | -0.0328 | 
Cc1c2c(nn1C)CSCc1cc(n(C)n1)CSc1cc(c3ccccc3c1)OCCCc1c(C(=O)O)n(C)c3c-2c(Cl)ccc13 [AZD5991] + CN(C)CCCOc1ccc(-c2ccc3ncc4c(c3c2)n(C2CCOCC2)c(=O)n4C)cn1 [AZD0156] (first compound max 1 µM, 7x7, partner max 1 µM) | -0.0252 |  | -0.058 | -0.0081 | -0.0675 | 0.0036 | 0.0132 | 
COc1cccc(OCCCN)c1-c1cc(Nc2cnc(C#N)cn2)n[nH]1 [Prexasertib] + Cc1cc2ncnn2cc1Nc1ncc2c(n1)n(C1CCOCC1)c(=O)n2C [AZD7648] (first compound max 1 µM, 7x7, partner max 10 µM) | 0.0126 |  | -0.0265 | -0.0189 | -0.0787 | -0.0079 | -0.0223 | 
C[C@@H](c1ccc2nccn2c1)n1nnc2ncc(-c3cnn(C)c3)nc21 [Savolitinib] + Cc1c2c(nn1C)CSCc1cc(n(C)n1)CSc1cc(c3ccccc3c1)OCCCc1c(C(=O)O)n(C)c3c-2c(Cl)ccc13 [AZD5991] (first compound max 1 µM, 7x7, partner max 1 µM) | -0.0499 |  | -0.0118 | -0.0434 | -0.0462 | -0.0549 | -0.0271 | 
